Test results as given in EP4417607A1, “HETEROCYCLIC COMPOUND AS SOS1 INHIBITOR AND USES THEREOF” (Nanjing Zaiming Pharmaceutical Co., Ltd., priority 2021, dated 2023).

Biological target: T1, KRAS G12D::SOS1 binding (Homo sapiens, UniProt Q07889)
T1 construct: purchased Cisbio 63ADK000CB21PEH
T1 sequence (Q07889 1-1333): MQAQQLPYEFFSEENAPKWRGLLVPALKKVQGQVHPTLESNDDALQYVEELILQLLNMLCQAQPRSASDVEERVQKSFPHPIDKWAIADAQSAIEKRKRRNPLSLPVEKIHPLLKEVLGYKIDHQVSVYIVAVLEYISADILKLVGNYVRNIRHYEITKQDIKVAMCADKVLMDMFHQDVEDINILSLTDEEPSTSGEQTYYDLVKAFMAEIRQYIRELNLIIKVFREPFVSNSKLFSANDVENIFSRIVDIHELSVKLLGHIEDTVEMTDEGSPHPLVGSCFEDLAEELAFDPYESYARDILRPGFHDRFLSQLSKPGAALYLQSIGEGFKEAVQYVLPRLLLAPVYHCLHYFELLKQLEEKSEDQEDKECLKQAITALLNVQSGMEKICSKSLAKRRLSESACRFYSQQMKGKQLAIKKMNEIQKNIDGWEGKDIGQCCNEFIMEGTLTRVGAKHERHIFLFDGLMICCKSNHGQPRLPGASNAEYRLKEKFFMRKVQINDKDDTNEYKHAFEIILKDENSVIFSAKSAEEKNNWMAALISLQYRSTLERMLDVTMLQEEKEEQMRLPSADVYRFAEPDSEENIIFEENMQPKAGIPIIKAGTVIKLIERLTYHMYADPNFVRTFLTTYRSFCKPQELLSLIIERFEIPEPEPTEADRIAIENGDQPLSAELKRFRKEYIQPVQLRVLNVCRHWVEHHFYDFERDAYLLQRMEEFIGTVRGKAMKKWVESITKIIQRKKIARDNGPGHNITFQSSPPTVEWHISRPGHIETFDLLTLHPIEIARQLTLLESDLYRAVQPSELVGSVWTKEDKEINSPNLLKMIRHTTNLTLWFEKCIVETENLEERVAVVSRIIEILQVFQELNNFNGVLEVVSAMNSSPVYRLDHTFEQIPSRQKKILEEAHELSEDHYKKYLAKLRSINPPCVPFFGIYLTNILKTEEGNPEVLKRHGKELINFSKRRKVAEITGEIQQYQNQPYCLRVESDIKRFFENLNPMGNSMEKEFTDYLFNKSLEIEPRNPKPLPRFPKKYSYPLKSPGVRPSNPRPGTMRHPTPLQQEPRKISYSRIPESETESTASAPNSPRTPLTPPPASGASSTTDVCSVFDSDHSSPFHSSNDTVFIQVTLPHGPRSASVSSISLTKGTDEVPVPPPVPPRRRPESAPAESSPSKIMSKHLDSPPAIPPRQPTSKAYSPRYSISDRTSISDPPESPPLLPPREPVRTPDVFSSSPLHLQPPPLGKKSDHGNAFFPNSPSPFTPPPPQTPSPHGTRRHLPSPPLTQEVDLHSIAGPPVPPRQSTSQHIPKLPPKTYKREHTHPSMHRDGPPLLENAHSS
Experiment: KRAS G12D::SOS1 binding inhibition (KRAS-G12D/SOS1 binding assay kit, Cisbio)
Settings: GTP 10 µM
Method: The inhibitory effect of the compounds of the present invention on KRAS G12D:: SOS 1 binding was assessed using KRAS-G12D/SOS1 BINDING ASSAY KITS (Cisbio, Cat. No. 63ADK000CB21PEH).
The test compound (10 mM stock solution) was diluted […] to 0.1 mM with 100% DMSO and diluted at a ratio of 1:3 in a 384-well dilution plate for 11 concentrations. 0.1 µL of the gradiently-diluted compound solution was transferred to a 384-well plate using Echo. 2 replicate wells were set for each compound. The solution was centrifuged at 1000 rpm/min for 1 min. 5 µL of 4X KRAS G12D (final concentration 1X) and a GTP solution (final concentration 10 µM, sigma, Cat. No. V900868) were transferred to the 384-well reaction plate. The mixture was centrifuged at 1000 rpm/min for 1 min and incubated at 25 °C for 15 min. 5 µL of a 4X SOS1 solution (final concentration 1X) was transferred to the 384-well reaction plate. The solution was centrifuged at 1000 rpm/min for 1 min and incubated at 25 °C for 45 min. The final concentrations of BAY-293 compound were 10, 3.33, 1.11, 0.37, 0.12, 0.04, 0.014, 0.0046, 0.0015, 0.0005, 0.00017, and 0 µM. The final concentrations of the test compound were 10, 3.33, 1.11, 0.37, 0.12, 0.04, 0.014, 0.0046, 0.0015, 0.0005, 0.00017, and 0 µM. The final concentrations of DMSO were all 0.5%. 10 µL of a 2X assay reagent solution was transferred to the 384-well reaction plate. The solution was centrifuged at 1000 rpm/min for 1 min and incubated at 4 °C for 180 min. An Envision multifunctional microplate reader was used to read at an excitation wavelength of […] and an emission wavelength of 615 nm. The signal intensity of 665/615 ratio was used to characterize the degree of enzyme activity. Data processing: compound IC50 was fitted by Graphpad Prism 8 nonlinear regression equation: Negative control: DMSO
IC50 (half maximal inhibitory concentration) of the compound was obtained using the following nonlinear fitting formula: Y = Bottom + (Top−Bottom)/(1+10^(∧)((LogIC50−X)*HillSlope)) [formula] • X: log value of the concentration of the test compound • Y: inhibition percentage
Bottom is the minimum inhibition percentage, Top is the maximum inhibition percentage, and HillSlope is the Hill slope.

IC50 | Compound
6.55 nM | Cc1nc(N[C@H](C)c2cccc(C(F)F)c2F)c2cn(C3(CF)CC3)c(=O)c(N3CCOCC3)c2n1 [Example 34, (R)-4-((1-(3-(difluoromethyl)-2-fluorophenyl)ethyl)amino)-6-(1-(fluoromethyl)cyclopropyl)-2-methyl-8-morpholinylpyrido[4,3-d]pyrimidine-7(6H)-one]
7.46 nM | COc1c(=O)n(N2CCOCC2)cc2c(N[C@H](C)c3cccc(C(F)F)c3F)nc(C)nc12 [Example 20, (R)-4-((1-(3-(difluoromethyl)-2-fluorophenyl)ethyl)amino)-8-methoxy-2-methyl-6-morpholinepyrido[4,3-d]pyrimidine-7(6H)-one]
4.17 nM | [2H]C([2H])([2H])Oc1c(=O)n(C2(CF)CC2)cc2c(N[C@H](C)c3cccc(C(F)F)c3F)nc(C)nc12 [Example 23, (R)-4-((1-(3-(difluoromethyl)-2-fluorophenyl)ethyl)amino)-6-(1-(fluoromethyl)cyclopropyl)-8-(methoxy-d3)-2-methylpyrido[4,3-d]pyrimidine-7(6H)-one]

Compound | IC50
[2H][C@](C)(Nc1nc(C)nc2c(N3CCOCC3)c(=O)n(C3(CF)CC3)cc12)c1cccc(C(F)F)c1F [Example 55, (R)-4-((1-(3-(difluoromethyl)-2-fluorophenyl)ethyl-1-d)amino)-6-(1-(fluoromethyl)cyclopropyl)-2-methyl-8-morpholinylpyrido[4,3-d]pyrimidine-7(6H)-one] | 6.3 nM
Cc1nc(N[C@H](C)c2cccc(C(F)F)c2F)c2cn(C3(CF)CC3)c(=O)c(N3CCOC[C@@H]3C)c2n1 [Example 40, 4-(((R)-1-(3-(difluoromethyl)-2-fluorophenyl)ethyl)amino)-6-(1-(fluoromethyl)cyclopropyl)-2-methyl-8-((S)-3-methylmorpholine)pyrido[4,3-d]pyrimidine-7(6H)-one] | 3.84 nM
